According to patent US7195888B2, “Calcium-independent phospholipase A2 induces ischemic ventricular arrhythmias and decreases infarction size” (Washington University in St. Louis, priority 2002, dated 2007):
“Also recorded” adds a separate entry of the source.

Columns and labels:
[1] = tested on: Langendorf-perfused mouse hearts; test: Ischemia-induced ventricular arrhythmias (PVCs, VT) after LAD coronary ligation in isolated Langendorf-perfused mouse hearts; conditions: for frequency of PVCs (PVC frequency/5 min interval) after coronary ligation: BEL 10 μM pretreatment from 5 min before ligation, 30 min ischemia
Method: Data are presented as the +/− standard deviation. A, frequency of PVCs in wild type control mouse hearts (open bars, n=19) and in TGiPLA2β transgenic mouse hearts (closed bars, n=24) in the absence of BEL pretreatment (−BEL). Total PVCs were recorded in 5 minute intervals (0–5, 5–10, 10–15, 15–20, 20–25, and 25–30 min) after ligation of the LAD coronary artery in TGiPLA2β and wild-type control Langendorf hearts. The mean PVC frequency per interval (PVC frequency/5 min interval) was then plotted vs time interval after coronary ligation. […] B, The effect of BEL pretreatment (+BEL) on PVC frequency measured in 5 min intervals after coronary litigation. […] C, Frequency histogram showing total episodes of VT in TGiPLA2β transgenics (closed bars, n=24) vs wild-type control hearts (open bars, n=19) with (+) and without (−) BEL pretreatment.
To determine the role of iPLA2β in arrhythmogenesis during acute cardiac ischemia, a Langendorf perfused heart preparation was employed^6. […] The frequency of spontaneous PVCs was higher in hearts expressing iPLA2β compared with controls at each 5 minute time interval examined during 30 minutes of ischemia (p=0.0003 vs WT by MANOVA) (FIG. 4). Multiple episodes of non-sustained VT occurred in TGiPLA2β hearts (9 of 24 hearts) compared with a single episode in one WT heart (1 of 19 hearts) (p=0.002).
Isolated perfused mouse heart preparations were utilized as previously referenced (1). Briefly, a traditionally accepted ex vivo intact model of acute ischemia was studied. The left anterior descending (LAD) coronary artery was occluded in isolated perfused hearts. Mice were anesthetized with sodium pentobarbital (150 mg/kg IP), and their hearts were rapidly excised and placed in oxygenated Krebs-Henseleit buffer containing (in mmol/L): NaCl 118.3, KCl 2.7, MgSO4 1.0, KH2PO4 1.4, NaHCO3 29.0, CaCl2 3.4, and glucose 10, plus insulin 70 mU/L and BSA 2.8%, at 37° C. Hearts were perfused by retrograde aortic flow with oxygenated buffer at 37° C. Flow rates were adjusted to maintain constant perfusion pressures of 45 to 50 mm Hg. Hearts were simultaneously superfused in a bath containing oxygenated buffer at 37° C. to maintain constant temperature.(1) Circulation 101:547–552 (2000).
Ischemic Studies with Isolated Langendorf-Perfused Mouse Hearts. Ventricular tachyarrhythmias induced by acute ischemia were characterized with use of an isolated, Langendorf-perfused heart preparation as described previously by Lerner et al^6 which is incorporated herein in its entirety by reference. Frequencies of spontaneous arrhythmias (PVCs, and episodes of VT) were counted for 30 min after coronary ligation and tablulated as PVC frequency per 5 minute intervals. A run of ventricular tachycardia was defined as 10 or more beats with a cycle length <100 msec. After 30 min, hearts were perfused through the aortic catheter with 1% Evans blue dye. To determine the effects of BEL on induction of arrhythmias after ischemia, hearts were perfused with buffer containing 10 μM BEL beginning 5 min before coronary ligation and during ischemia. All studies were randomized and blinded.

[2] = tested on: iPLA2β; test: ESI/MS quantification of fatty acid release into effluent and accumulation of fatty acids and lysolipids in ischemic zones of Langendorf perfused hearts; parameters: species or system mouse; conditions: hearts from transgenic mice, 15 min LAD occlusion, BEL pretreatment
Method: A, Nonesterified fatty acid (NEFA) release obtained from 15 in of effluent from control or ischemic Langendorf hearts. *P<0.001 B, NEFA mass in ischemic heart tissue from WT and TGiPLA2β hearts. *P<0.01. C, Lysophosphatidylcholine (LPC) mass in ischemic tissue from WT and TGiPLA2β hearts. *P<0.0001. Release of NEFA into the effluents (a) and accumulation of NEFA (b) and LPC (c) in ischemic tissue from Langendorf-perfused hearts [WT (light bars) and TGiPLA2β (dark bars)] were measured in the absence or presence of LAD occlusion (ischemia) in the absence (−) or presence […] of BEL pretreatment as indicated.
To determine if ischemia activates iPLA2β catalyzed hydrolysis of lipids in intact myocardium, ESI/MS (electrospray—mass spectrometry) was utilized to quantify the release of fatty acids into the effluent and the accumulation of fatty acids and lysolipids in ischemic zones^19,20. After 15 min of LAD occlusion, increased release of fatty acids was present in the effluents from perfused hearts and both fatty acids and lysolipids accumulated in the ischemic zone of hearts from TG iPLA2β mice but not WT mice (FIG. 3a). […] The concurrent activation of iPLA2β during ischemia in conjunction with the generation of malignant ventricular arrhythmias and their rescue by inhibition of the expressed iPLA2β transgene formally fulfills traditional criteria for proof of a cause and effect relationship between two phenomena (i.e., malignant arrhythmias are not present when virtually no iPLA2β activity is present (WT mice) and malignant arrhythmias are manifest during activation of the expressed iPLA2β transgene by ischemia and arrhythmias are ablated by mechanism-based inhibition of expressed iPLA2β enzymic activity).
Electrospray Ionization Mass Spectrometry of Lipids from Wild type and Transgenic Mouse Myocardium. Lipids were extracted from mouse myocardium (˜50 mg) by a modified Bligh and Dyer technique utilizing 50 mM LiCl in the aqueous layer in the presence of internal standards selected based on their lack of demonstrable endogenous molecular ions in that region^19,20. ESI/MS analysis was performed utilizing a Finnigan TSQ-7000 Spectrometer as previously described^19,20.

[3] = tested on: iPLA2β; test: Acylcarnitine content of ischemic zone of Langendorf perfused hearts by ESI mass spectrometry; parameters: species or system mouse; conditions: BEL 10 uM for 5 min, 15 min ischemia
Method: The ischemia-induced increase in acylcarnitines in wild type mice is inhibited by BEL. Moreover, iPLA2β transgenic mice sustain a dramatic increase in acylcarnitine content during myocardial ischemia in comparison to wild type mice.
Next, ischemia was induced by ligating a marginal branch of the LAD coronary artery and ischemia was induced for 15 minutes. Aliquots of the ischemic zone were taken and rapidly frozen. After addition of internal standard, aliquots of frozen tissue were extracted and analyzed for acylcarnitine content by ESI mass spectrometry by comparisons to standard utilizing methods previously described.

[4] = tested on: ischemic myocardium; test: Infarct size after ischemia in hearts overexpressing iPLA2β; parameters: species or system mouse; conditions: iPLA2β overexpression, BEL treatment
Method: Control or iPLA2β transgenic mice were perfused retrograde through the aorta for an equilibration interval prior to the induction of ischemia by ligating the LAD coronary artery. After 15 min. of ischemia the tissue was fixed and the magnitude of infarcted tissue was assessed on a 1 to 5 scale. […] Moreover, the deliberate overexpression of iPLA2β increases infarct size which can be reduced with BEL treatment. Thus the discovery clearly for the first time defines a evidences iPLA2β as a pharmacologic target in any aspect of phospholipase work by discriminating iPLA2β activity from other phospholipases by the traditional pharmacologic criteria of knockdown, inhibition and rescue by inhibition of the species-specific knock down pathophysiology. The evidence is this proof of concept thereby formally provides an intact, functional organ model to test the effect of pharmacologic agents on ischemia induced arrhythmias by inhibition of iPLA2β regulatory networks. […] Collectively, the inventor discovered herein a seminal discovery in that it defines and evidences for the first time in molecular detail a protein target, iPLA2β, for prevention and treatment of ventricular arrhythmias in ischemic zones and identifies a new way to screen for additional targets.

[5] = target: T1, iPLA2β (Homo sapiens, UniProt O60733); conditions: racemic BEL; cited from earlier work
T1 sequence (O60733 1-806): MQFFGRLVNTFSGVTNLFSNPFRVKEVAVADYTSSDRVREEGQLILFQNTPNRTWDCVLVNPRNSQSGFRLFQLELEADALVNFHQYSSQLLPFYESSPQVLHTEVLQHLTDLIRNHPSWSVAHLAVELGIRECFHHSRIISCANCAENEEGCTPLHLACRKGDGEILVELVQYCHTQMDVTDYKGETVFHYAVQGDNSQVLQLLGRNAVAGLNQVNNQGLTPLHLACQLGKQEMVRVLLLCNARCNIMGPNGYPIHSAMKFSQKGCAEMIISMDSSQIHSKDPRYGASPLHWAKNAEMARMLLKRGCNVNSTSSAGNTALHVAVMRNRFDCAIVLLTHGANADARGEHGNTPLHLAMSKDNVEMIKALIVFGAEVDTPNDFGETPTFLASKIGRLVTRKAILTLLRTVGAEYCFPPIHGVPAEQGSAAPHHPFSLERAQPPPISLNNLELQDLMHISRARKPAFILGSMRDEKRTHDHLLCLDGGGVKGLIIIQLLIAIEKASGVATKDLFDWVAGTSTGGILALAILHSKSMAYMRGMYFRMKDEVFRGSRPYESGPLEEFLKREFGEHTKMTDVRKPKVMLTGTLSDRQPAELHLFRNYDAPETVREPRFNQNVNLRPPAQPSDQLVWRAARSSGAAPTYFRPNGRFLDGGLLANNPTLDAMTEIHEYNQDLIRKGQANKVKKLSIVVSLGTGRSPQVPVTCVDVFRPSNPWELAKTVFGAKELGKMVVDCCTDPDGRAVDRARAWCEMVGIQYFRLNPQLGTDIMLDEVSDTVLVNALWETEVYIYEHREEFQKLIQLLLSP

[6] = target: T2, iPLA2γ (Homo sapiens, UniProt Q9NP80); conditions: racemic BEL; cited from earlier work
T2 sequence (Q9NP80 1-782): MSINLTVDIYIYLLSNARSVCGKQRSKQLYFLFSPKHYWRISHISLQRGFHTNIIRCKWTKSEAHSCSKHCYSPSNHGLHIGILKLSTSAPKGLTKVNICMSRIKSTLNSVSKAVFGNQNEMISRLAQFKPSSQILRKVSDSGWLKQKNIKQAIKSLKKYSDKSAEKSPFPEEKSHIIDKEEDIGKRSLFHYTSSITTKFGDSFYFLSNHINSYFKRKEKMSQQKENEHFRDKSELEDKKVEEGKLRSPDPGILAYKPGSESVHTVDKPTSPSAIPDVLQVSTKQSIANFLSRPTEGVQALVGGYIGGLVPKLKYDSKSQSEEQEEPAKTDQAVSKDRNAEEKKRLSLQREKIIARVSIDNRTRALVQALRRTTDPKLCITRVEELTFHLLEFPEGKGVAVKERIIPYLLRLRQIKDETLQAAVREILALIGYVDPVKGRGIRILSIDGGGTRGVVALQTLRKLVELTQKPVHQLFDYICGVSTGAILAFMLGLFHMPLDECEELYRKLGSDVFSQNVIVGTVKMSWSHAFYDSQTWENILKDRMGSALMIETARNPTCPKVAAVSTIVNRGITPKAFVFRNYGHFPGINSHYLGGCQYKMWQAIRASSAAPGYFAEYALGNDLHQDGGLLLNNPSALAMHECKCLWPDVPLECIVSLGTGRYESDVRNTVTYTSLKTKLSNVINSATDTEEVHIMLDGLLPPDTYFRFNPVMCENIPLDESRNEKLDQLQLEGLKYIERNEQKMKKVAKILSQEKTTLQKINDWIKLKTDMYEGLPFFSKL

[7] = tested on: ischemic hearts; conditions: previously shown; cited from earlier work
[8] = TGiPLA2β hearts, BEL 10 μM pretreatment, LAD ligation
[9] = listed as phospholipase A2 mechanism-based inhibitor

Structure (SMILES) | frequency of PVCs (PVC frequency/5 min interval) after coronary ligation ([1]; TGiPLA2β hearts) | episodes of ventricular tachycardia / malignant ventricular tachyarrhythmias [1, 8] | hearts with VT / hearts studied [1, 8] | episodes of ventricular tachycardia / malignant ventricular tachyarrhythmias ([1]; TGiPLA2β hearts, BEL 10 μM pretreatment, LAD ligation, listed as phospholipase A2 mechanism-based inhibitor) | frequency of PVCs (PVC frequency/5 min interval) after coronary ligation ([1]; WT control hearts) | accumulation of lysolipids in ischemic zones [2] | release of fatty acids [2] | accumulation of lysolipids in ischemic zones [2, 9] | release of fatty acids [2, 9] | ischemia-induced increase in acylcarnitines ([3]; iPLA2β transgenic hearts) | ischemia-induced increase in acylcarnitines ([3]; wild type (control) hearts) | infarct size [4] | inhibition of iPLA2β [5] | inhibition of iPLA2γ [6] | arrhythmias in ischemic hearts [7]
O=C1O/C(=C/Br)CCC1c1cccc2ccccc12 (stereo not drawn) [BEL, (E)-6-(bromomethylene)-3-(1-naphthalenyl)-2H-tetrahydropyran-2-one] | inhibited the frequency of PVCs; also recorded: significant decrease in PVC frequency | completely abolished VT; also recorded: rescue of ischemia-induced ventricular tachyarrhythmias; also recorded: significant reduction of VT episodes | 0/10 | rescued transgenic hearts from malignant ventricular dysrhythmias | inhibited the frequency of PVCs; also recorded: reduced PVC frequency | nearly completely ablated | nearly completely ablated | completely ablated | completely ablated | inhibitable; also recorded: inhibited | major portion of acyl carnitine accumulation is BEL inhibitable; also recorded: inhibited | reduced | inhibits | inhibits | 
CCOC(=O)[C@@]1(CCCCCCOc2ccc(Cl)cc2)CO1 [Etomoxir] |  |  |  |  |  |  |  |  |  |  |  |  |  |  | inhibit arrhythmias
